Source: patent publication US6632816B1, “Aromatic derivatives as HIV aspartyl protease inhibitors” (Pharmacor Inc., priority 2002, dated 2003)

Molecular target: HIV protease (Human immunodeficiency virus type 1 group M subtype B, UniProt P04585)
Test: biochemical
Description: Enzymatic Assay for Determining the Inhibition Constant (Ki) of Synthetic Compounds Targeting the HIV Protease
This is a fluorometric assay based on the cleavage by protease of a substrate carrying a donor group (EDANS) and an acceptor group (DABCYL) on each side of the cleavage site, interacting together through fluorescence resonance energy transfer (FRET) as described by Matayoshi et al. (Science 247:954-954, 1990).
After calculation of Vo and Vi, the inhibition constant (Ki) of the compound is determined using the equation of Henderson: [formula]
where Vo=the enzyme's initial velocity
Vi=the enzyme velocity in the presence of the inhibitory compound,
[I]=inhibitor concentration, [S]=substrate concentration,
Km=Michaelis-Menten constant and Kiapp=apparent Ki
Graphs are traced and the Ki determined using GraphPad Prism software v.

Which Ki does the source give for `CC(C)CN([C@H](CO)CCCCNC(=O)[C@H](Cc1ccc2ccccc2c1)NC(=O)OC(C)(C)C)S(=O)(=O)c1ccc(N)c(F)c1` [Example 91, (1S,5S)-(1-{5-[(4-Amino-3-fluoro-benzenesulfonyl)-isobutyl-amino]-6-hydroxy-hexylcarbamoyl}-2-naphthalen-2-yl-ethyl)-carbamic Acid tert-Butyl Ester] here?
Its Ki is < 3.8 nM.

Which Ki does the source give for `CC(C)CN([C@H](CO)CCCCNC(=O)[C@H](Cc1ccc2ccccc2c1)NC(=O)OC(C)(C)C)S(=O)(=O)c1ccc(F)c(N)c1` [Example 90, (1S,5S)-(1-{5-[(3-Amino-4-fluoro-benzenesulfonyl)-isobutyl-amino]-6-hydroxy-hexylcarbamoyl}-2-naphthalen-2-yl-ethyl)-carbamic Acid tert-Butyl Ester] here?
The Ki was 4 nM.

Which Ki does the source give for `CC(C)CN([C@H](CO)CCCCNC(=O)[C@H](Cc1ccc2ccccc2c1)NC(=O)c1cccnc1)S(=O)(=O)c1ccc(F)c(N)c1` [Example 83] here?
The Ki was < 3.8 nM.

For `CC(C)CN([C@H](CO)CCCCNC(=O)[C@@H](N)Cc1ccc2ccccc2c1)S(=O)(=O)c1ccc(N)c(F)c1` [Example 113, (2S,5S)-2-Amino-N-{5-[(4-amino-3-fluoro-benzenesulfonyl)-isobutyl-amino]-6-hydroxy-hexyl}-3-naphthalen-2-yl-propionamide], which Ki is on record?
The Ki was < 3.8 nM.

Which Ki does the source give for `CC(C)CN([C@H](CO)CCCCNC(=O)[C@H](Cc1ccc2ccccc2c1)NC(=O)c1ccncc1)S(=O)(=O)c1ccc(F)c(N)c1` [Example 84, (1S,5S)-N-(1-{5-[(3-Amino-4-fluoro-benzenesulfonyl)-isobutyl-amino]-6-hydroxy-hexylcarbamoyl}-2-naphthalen-2-yl-ethyl)-isonicotinamide] here?
Its Ki is < 3.8 nM.

How did the Ki turn out when `CC(C)CN([C@H](CO)CCCCNC(=O)[C@H](Cc1ccc2ccccc2c1)NC(=O)C1CCCC1)S(=O)(=O)c1ccc(N)cc1` [Example 60, (1S,5S)-Cyclopentanecarboxylic Acid (1-{5-[(4-Amino-benzenesulfonyl)-isobutyl-amino]-6-hydroxy-hexylcarbamoyl}-2-naphthalen-2-yl-ethyl)-amide] was run?
The Ki was 1.9 nM.

`CC(=O)N[C@@H](Cc1ccc2ccccc2c1)C(=O)NCCCC[C@@H](CO)N(CC(C)C)S(=O)(=O)c1ccc(F)c(N)c1` [Example 89, (2S,5S)-2-Acetylamino-N-{5-[(3-amino-4-fluoro-benzenesulfonyl)-isobutyl-amino]-6-hydroxy-hexyl}-3-naphthalen-2-yl-propionamide] was tested. Which Ki did it give?
Its Ki is < 3.8 nM.

How did the Ki turn out when `CC(C)CN([C@H](CO)CCCCNC(=O)[C@@H](NC(=O)c1cnccn1)C(c1ccccc1)c1ccccc1)S(=O)(=O)c1ccc(N)cc1` [Example 97, (1S,5S)-Pyrazine-2-carboxylic Acid (1-{5-[(4-Amino-benzenesulfonyl)-isobutyl-amino]-6-hydroxy-hexylcarbamoyl}-2,2-diphenyl-ethyl)-amide] was run?
The Ki was < 3.8 nM.

With `CC(C)CN([C@H](CO)CCCNC(=O)[C@H](Cc1cccc2ccccc12)NCC(=O)O)S(=O)(=O)c1ccc(N)cc1` [Example 27, (1S,4S)-(1-{4-[(4-Amino-benzenesulfonyl)-isobutyl-amino]-5-hydroxy-pentylcarbamoyl}-2-naphthalen-1-yl-ethylamino)-acetic Acid] as the molecule, how does the Ki read?
The Ki was 2.5 nM.

How did the Ki turn out when `CC(C)CN([C@H](CO)CCCCNC(=O)[C@@H](NC(=O)c1ccc(O)c([N+](=O)[O-])c1)C(c1ccccc1)c1ccccc1)S(=O)(=O)c1ccc(N)cc1` [Example 103, (1S,5S)-N-(1-{5-[(4-Amino-benzenesulfonyl)-isobutyl-amino]-6-hydroxy-hexylcarbamoyl}-2,2-diphenyl-ethyl)-4-hydroxy-3-nitro-benzamide] was run?
The Ki was < 3.8 nM.

How did the Ki turn out when `COC(=O)N[C@@H](Cc1ccccc1-c1ccc(OC)cc1)C(=O)NCCC[C@@H](CO)N(CC(C)C)S(=O)(=O)c1ccc(N)cc1` [Example 6, (1S,4S)-[1-{4-[(4-Amino-benzenesulfonyl)-isobutyl-amino]-5-hydroxy-pentylcarbamoyl}-2-(4′-methoxy-biphenyl-2-yl)-ethyl]-carbamic Acid Methyl Ester] was run?
Its Ki is 13 nM.

With `CCN[C@@H](Cc1cccc2ccccc12)C(=O)NCCC[C@@H](CO)N(CC(C)C)S(=O)(=O)c1ccc(N)cc1` [Example 26, (2S,4S)-N-{4-[(4-Amino-benzenesulfonyl)-isobutyl-amino]-5-hydroxy-pentyl}-2-ethylamino-3-naphthalen-1-yl-propionamide] as the molecule, how does the Ki read?
The Ki was 3 nM.

How did the Ki turn out when `CC(C)CN([C@H](CO)CCCCNC(=O)[C@@H](NC(=O)c1ccc([N+](=O)[O-])c(O)c1)C(c1ccccc1)c1ccccc1)S(=O)(=O)c1ccc(N)cc1` [Example 107, (1S,5S)-N-(1-{5-[(4-Amino-benzenesulfonyl)-isobutyl-amino]-6-hydroxy-hexylcarbamoyl}-2,2-diphenyl-ethyl)-3-hydroxy-4-nitro-benzamide] was run?
The Ki was < 3.8 nM.

For `COCC(=O)N[C@@H](Cc1cccc2ccccc12)C(=O)NCCC[C@@H](CO)N(CC(C)C)S(=O)(=O)c1ccc(N)cc1` [Example 19, (2S,4S)-N-{4-[(4-Amino-benzenesulfonyl)-isobutyl-amino]-5-hydroxy-pentyl}-2-(2-methoxy-acetylamino)-3-naphthalen-1-yl-propionamide], which Ki is on record?
Its Ki is 2.6 nM.

With `CC(C)CN([C@H](CO)CCCNC(=O)[C@H](Cc1cccc2ccccc12)NC(=O)C1CCCC1)S(=O)(=O)c1ccc(N)cc1` [Example 23, (1S,4S)-Cyclopentanecarboxylic Acid (1-{4-[(4-Amino-benzenesulfonyl)-isobutyl-amino]-5-hydroxy-pentylcarbamoyl}-2-naphthalen-1-yl-ethyl)-amide] as the molecule, how does the Ki read?
Its Ki is 2 nM.

With `CC(C)CN([C@H](CO)CCCCNC(=O)[C@H](Cc1ccc2ccccc2c1)NC(=O)C1CC1)S(=O)(=O)c1ccc(F)c(N)c1` [Example 87, (1S,5S)-Cyclopropanecarboxylic Acid (1-{5-[(3-Amino-4-fluoro-benzenesulfonyl)-isobutyl-amino]-6-hydroxy-hexylcarbamoyl}-2-naphthalen-2-yl-ethyl)-amide] as the molecule, how does the Ki read?
The Ki was < 3.8 nM.

`CCCCN[C@@H](Cc1cccc2ccccc12)C(=O)NCCC[C@@H](CO)N(CC(C)C)S(=O)(=O)c1ccc(N)cc1` [Example 20, (2S,4S)-N-{4-[(4-Amino-benzenesulfonyl)-isobutyl-amino]-5-hydroxy-pentyl}-2-butylamino-3-naphthalen-1-yl-propionamide] was tested. Which Ki did it give?
Its Ki is 4.4 nM.

`CC(C)CN[C@@H](Cc1ccc2ccccc2c1)C(=O)NCCCC[C@@H](CO)N(CC(C)C)S(=O)(=O)c1ccc(N)cc1` [Example 63, (2S,5S)-N-{5-[(4-Amino-benzenesulfonyl)-isobutyl-amino]-6-hydroxy-hexyl}-2-isobutylamino-3-naphthalen-2-yl-propionamide] was tested. Which Ki did it give?
The Ki was 3.9 nM.

Which Ki does the source give for `COc1ccc(CC(=O)N[C@@H](Cc2cccc3ccccc23)C(=O)NCCC[C@@H](CO)N(CC(C)C)S(=O)(=O)c2ccc(N)cc2)cc1` [Example 5, (2S,4S)-N-{4-[(4-Amino-benzenesulfonyl)-isobutyl-amino]-5-hydroxy-pentyl}-2-[2-(4-methoxy-phenyl)-acetylamino]-3-naphthalen-1-yl-propionamide] here?
Its Ki is 11 nM.

How did the Ki turn out when `CC(C)CN([C@H](CO)CCCCNC(=O)[C@@H](NC(=O)OCc1cccnc1)C(c1ccccc1)c1ccccc1)S(=O)(=O)c1ccc(N)cc1` [Example 100, (1S,5S)-(1-{5-[(4-Amino-benzenesulfonyl)-isobutyl-amino]-6-hydroxy-hexylcarbamoyl}-2,2-diphenyl-ethyl)-carbamic Acid Pyridin-3-ylmethyl Ester] was run?
Its Ki is < 3.8 nM.

How did the Ki turn out when `CC(C)CN([C@H](CO)CCCCNC(=O)[C@@H](NC(=O)c1ccc(N)nc1)C(c1ccccc1)c1ccccc1)S(=O)(=O)c1ccc(N)cc1` [Example 109, (1S,5S)-6-Amino-N-(1-{5-[(4-amino-benzenesulfonyl)-isobutyl-amino]-6-hydroxy-hexylcarbamoyl}-2,2-diphenyl-ethyl)-nicotinamide] was run?
The Ki was < 3.8 nM.

For `Cc1ccc(C(=O)N[C@H](C(=O)NCCCC[C@@H](CO)N(CC(C)C)S(=O)(=O)c2ccc(N)cc2)C(c2ccccc2)c2ccccc2)cn1` [Example 112, (1S,5S)-N-(1-{5-[(4-Amino-benzenesulfonyl)-isobutyl-amino]-6-hydroxy-hexylcarbamoyl}-2,2-diphenyl-ethyl)-6-methyl-nicotinamide], which Ki is on record?
Its Ki is < 3.8 nM.

How did the Ki turn out when `CCCN[C@@H](Cc1ccc2ccccc2c1)C(=O)NCCCC[C@@H](CO)N(CC(C)C)S(=O)(=O)c1ccc(N)cc1` [Example 64, (2S,5S)-N-{5-[(4-Amino-benzenesulfonyl)-isobutyl-amino]-6-hydroxy-hexyl}-3-naphthalen-2-yl-2-propylamino-propionamide] was run?
Its Ki is 4.6 nM.

With `CC(C)CN([C@H](CO)CCCCNC(=O)[C@H](Cc1ccc2ccccc2c1)NC(=O)C1CCOC1)S(=O)(=O)c1ccc(F)c(N)c1` (stereo partly drawn) [Example 85, (1S,5S)-Tetrahydro-furan-3-carboxylic Acid (1-{5-[(3-Amino-4-fluoro-benzenesulfonyl)-isobutyl-amino]-6-hydroxy-hexylcarbamoyl}-2-naphthalen-2-yl-ethyl)-amide] as the molecule, how does the Ki read?
Its Ki is < 3.8 nM.

How did the Ki turn out when `CC(C)CN([C@H](CO)CCCCNC(=O)[C@@H](NC(=O)c1ccccc1O)C(c1ccccc1)c1ccccc1)S(=O)(=O)c1ccc(N)cc1` [Example 104, (1S,5S)-N-(1-{5-[(4-Amino-benzenesulfonyl)-isobutyl-amino]-6-hydroxy-hexylcarbamoyl}-2,2-diphenyl-ethyl)-2-hydroxy-benzamide] was run?
The Ki was < 3.8 nM.

For `CC(C)CN([C@H](CO)CCCNC(=O)[C@@H](N)C(c1ccccc1)c1ccccc1)S(=O)(=O)c1ccc(N)cc1` [Example 24, (2S,4S)-2-Amino-N-{4-[(4-amino-benzenesulfonyl)-isobutyl-amino]-5-hydroxy-pentyl}-3,3-diphenyl-propionamide], which Ki is on record?
Its Ki is 7.5 nM.

With `CC(C)CN([C@H](CO)CCCNC(=O)[C@H](Cc1cccc2ccccc12)NC(=O)C1CCCCC1)S(=O)(=O)c1ccc(N)cc1` [Example 13, (1S,4S)-Cyclohexanecarboxylic Acid (1-{4-[(4-Amino-benzenesulfonyl)-isobutyl-amino]-5-hydroxy-pentylcarbamoyl}-2-naphthalen-1-yl-ethyl)-amide] as the molecule, how does the Ki read?
Its Ki is 2.3 nM.

Which Ki does the source give for `CC(C)CN([C@H](CO)CCCCNC(=O)[C@H](Cc1ccc2ccccc2c1)NC(=O)C1CCCCC1)S(=O)(=O)c1ccc(F)c(N)c1` [Example 88, (1S,5S)-Cyclohexanecarboxylic Acid (1-{5-[(3-Amino-4-fluoro-benzenesulfonyl)-isobutyl-amino]-6-hydroxy-hexylcarbamoyl}-2-naphthalen-2-yl-ethyl)-amide] here?
Its Ki is < 3.8 nM.
